Assay results reported in article PMC4513132, “Oxidation of Monolignols by Members of the Berberine Bridge Enzyme Family Suggests a Role in Plant Cell Wall Metabolism” (The Journal of Biological Chemistry, 2015).

Key:
AtBBE-like 15 [1] = biological target: T1, AtBBE-like 15 (Arabidopsis thaliana, UniProt O64743); test: Thermofluor, SYPRO Orange; assay type: binding; details: 50 mM MES pH 7.0, 2 mg/ml ligand
T1 construct: gene MEE23; secreted by Komagataella pastoris (codon-optimised synthetic gene); crystallised as 27-532; bicovalent FAD (His-115, Cys-179)

AtBBE-like 15 [2] = biological target: T1, AtBBE-like 15; test: X-ray crystal structure, […] Å; assay type: binding; details: covalent (bicovalent: His-115 to 8α-methyl, Cys-179 to C6)
AtBBE-like 15 [3] = biological target: T1, AtBBE-like 15; test: stopped-flow reductive half-reaction, flavin absorbance at […] nm; assay type: biochemical; details: 50 mM potassium phosphate pH 7.0, 25 °C, anoxic
AtBBE-like 13 = biological target: T2, AtBBE-like 13 (Arabidopsis thaliana, UniProt Q93ZA3); test: as above; assay type: biochemical; details: 50 mM potassium phosphate pH 7.0, 25 °C, anoxic
T2 construct: gene At1g30760; isolated from Komagataella pastoris cells (codon-optimised synthetic gene)
T2 sequence (Q93ZA3 31-534): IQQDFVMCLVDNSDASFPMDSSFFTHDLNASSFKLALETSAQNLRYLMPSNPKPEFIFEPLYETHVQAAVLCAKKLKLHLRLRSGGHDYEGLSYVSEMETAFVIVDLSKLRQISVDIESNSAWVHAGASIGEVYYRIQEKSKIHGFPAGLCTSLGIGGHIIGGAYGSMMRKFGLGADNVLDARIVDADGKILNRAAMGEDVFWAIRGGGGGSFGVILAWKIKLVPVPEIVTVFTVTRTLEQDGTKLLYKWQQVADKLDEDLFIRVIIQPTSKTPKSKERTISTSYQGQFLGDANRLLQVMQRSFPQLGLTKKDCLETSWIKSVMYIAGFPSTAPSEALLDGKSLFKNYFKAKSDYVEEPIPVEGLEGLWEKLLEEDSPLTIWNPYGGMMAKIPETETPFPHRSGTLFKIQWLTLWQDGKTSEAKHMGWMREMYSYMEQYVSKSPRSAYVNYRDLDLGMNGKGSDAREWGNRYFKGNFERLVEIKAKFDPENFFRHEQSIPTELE

T1 sequence (O64743 27-532): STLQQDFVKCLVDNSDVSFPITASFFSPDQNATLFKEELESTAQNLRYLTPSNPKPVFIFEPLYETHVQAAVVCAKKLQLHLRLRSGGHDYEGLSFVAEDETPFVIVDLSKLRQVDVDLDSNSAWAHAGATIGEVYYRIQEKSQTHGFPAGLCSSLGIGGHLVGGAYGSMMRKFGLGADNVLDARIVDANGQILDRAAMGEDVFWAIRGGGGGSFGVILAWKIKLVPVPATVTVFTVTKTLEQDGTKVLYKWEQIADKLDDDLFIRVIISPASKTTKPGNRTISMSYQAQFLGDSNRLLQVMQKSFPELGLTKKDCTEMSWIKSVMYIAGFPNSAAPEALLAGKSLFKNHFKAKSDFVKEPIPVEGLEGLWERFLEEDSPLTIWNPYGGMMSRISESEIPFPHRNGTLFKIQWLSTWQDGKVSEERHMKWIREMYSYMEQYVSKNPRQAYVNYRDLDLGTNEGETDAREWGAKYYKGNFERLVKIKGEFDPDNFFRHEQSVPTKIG

Row | SMILES | increase of the melting temperature (AtBBE-like 15 [1]) | X-ray crystal structure, 2.1 Å (AtBBE-like 15 [2]) | Kd (AtBBE-like 15 [3]) | Kd (AtBBE-like 13)
1 | OC[C@H]1OC(O)[C@H](O)[C@@H](O)[C@@H]1O (stereo partly drawn) [D-glucose] | monosaccharides, such as D-glucose, had such a profound effect on the protein's thermal stability |  |  | 
2 | Cc1cc2nc3c(=O)[nH]c(=O)nc-3n(C[C@H](O)[C@H](O)[C@H](O)COP(=O)(O)OP(=O)(O)OC[C@H]3O[C@@H](n4cnc5c(N)ncnc54)[C@H](O)[C@@H]3O)c2cc1C [FAD] |  | The FAD cofactor is bicovalently linked to the peptide chain |  | 
3 | COc1cc(/C=C/CO)ccc1O[C@@H]1O[C@H](CO)[C@@H](O)[C@H](O)[C@H]1O [coniferin] |  |  | 660 ± 100 µM | 1.86 ± 0.624 mM
4 | OC/C=C/c1ccc(O)cc1 [p-coumaryl alcohol] |  |  | 700 ± 120 µM | 0.867 ± 0.123 mM
